This is an account of results in paper PMC12263422, “Cryo-EM structure of the human THIK-1 K2P K^+ channel reveals a lower Y gate regulated by lipids and anesthetics” (Nature Structural & Molecular Biology, 2025).

“And” between values parts separate entries of the source, which are not always exact repeats. Equal values may be shown once. Read-outs that look alike come from different tables or passages of the source.

In general, inhibition refers to the relative decrease from the control value, in per cent. The Inhibition is the relative decrease from the control value, in per cent. Low readings indicate little suppression, high ones strong suppression.

The test concerns the target T1, Human K2P13.1 THIK-1 (WT) (Homo sapiens, UniProt Q9HB14).
T1 construct: expressed in transfected cells; host or cells: Xenopus oocytes (mRNA injection)
T1 sequence (Q9HB14 1-408): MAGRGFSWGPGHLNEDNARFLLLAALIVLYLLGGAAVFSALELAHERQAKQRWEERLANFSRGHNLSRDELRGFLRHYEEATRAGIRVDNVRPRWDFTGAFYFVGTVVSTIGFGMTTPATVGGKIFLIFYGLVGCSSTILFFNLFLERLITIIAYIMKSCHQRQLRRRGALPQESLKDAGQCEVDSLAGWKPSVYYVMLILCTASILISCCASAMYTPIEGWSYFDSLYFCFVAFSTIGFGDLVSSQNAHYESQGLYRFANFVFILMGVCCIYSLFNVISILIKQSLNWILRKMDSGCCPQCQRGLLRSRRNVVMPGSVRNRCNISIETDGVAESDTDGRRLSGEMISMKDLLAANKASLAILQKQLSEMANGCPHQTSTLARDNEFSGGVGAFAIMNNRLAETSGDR
The experiment in a line: Macroscopic inside-out excised patch recordings from Xenopus oocytes expressing WT THIK-1; compounds applied to the intracellular side. The class given is cell-based. To be noted: for Fold activation: THIK-1 WT (unstimulated); for inhibition at 152 µM: halothane 0.152 mM; for inhibition at 304 µM: halothane 0.304 mM; for inhibition at 1520 µM: halothane 1.52 mM; for inhibition at 3040 µM: halothane 3.04 mM; for inhibition at 15200 µM: halothane 15.2 mM. An excerpt:
Human K2P13.1 THIK-1 (GenBank accession number: NM_022054) and human K2P12.1 THIK-2 (NM_022055.1) were used in this study. For functional expression studies, the respective K^+ channel subtype coding sequences were subcloned into the oocyte expression vector pSGEM or the dual-purpose expression vector pFAW[41] and verified by sequencing. All mutant channels were obtained by site-directed mutagenesis and verified by sequencing. To increase surface expression and macroscopic currents, measurements of THIK-2 channels used a mutated ER retention motif, (R11A R12A R14A R15A R16A; THIK-2*)[20]. Vector DNA was linearized with NheI or MluI, and mRNA was synthesized in vitro using the SP6 or T7 AmpliCap Max High Yield Message Maker Kit (Cellscript, USA) or HiScribe T7 ARCA mRNA Kit (New England Biolabs).
Two-electrode voltage–clamp (TEVC) studies were performed in Xenopus oocytes. All animal use conformed to the Guide for the Care and Use of Laboratory Animals (NIH Publication 85–23), and all experiments using Xenopus toads were approved by the local ethics panels. Oocytes were stored at 17 °C in ND96 recording solution composed of (in mM): 96 NaCl, 2 KCl, 1.8 CaCl2, 1 MgCl2, 5 HEPES (pH 7.5 adjusted with NaOH and HCl), supplemented with Na-pyruvate (275 mg L^–1), theophylline (90 mg L^–1) and gentamicin (50 mg L^–1). Oocytes were injected with 1 ng mRNA for WT or mutant channels, and were incubated for 24–48 h at 17 °C. Two-electrode voltage clamp recordings were then performed as previously described[42],[43]. For macroscopic patch–clamp measurements, oocytes were obtained as described above incubated at 17 °C in a solution containing (mM): 54 NaCl, 30 KCl, 2.4 NaHCO3, 0.82 MgSO4 ×7 H2O, 0.41 CaCl2, 0.33 Ca(NO3)2 ×4 H2O and 7.5 TRIS (pH 7.4 adjusted with NaOH and HCl) for 1–4 days before use. Excised patch recordings in inside-out configuration conditions were performed at room temperature. Patch pipettes were made from thick-walled borosilicate glass GB 200TF-8P (Science Products), had resistances of 0.2–0.5 MΩ (tip diameter, 10–25 µm) and filled with a pipette solution (in mM): 120 KCl, 10 HEPES and 3.6 CaCl2 (pH 7.4 adjusted with KOH and HCl). Intracellular bath solutions and compounds were applied to the cytoplasmic side of excised patches for the various K^+ channels through a gravity flow multi-barrel pipette system. The intracellular solution had the following composition (in mM): 120 KCl, 10 HEPES, 2 EGTA and 1 pyrophosphate (pH adjusted with KOH and HCl). Currents were recorded with an EPC10 amplifier (HEKA Electronics) and sampled at 10 kHz or higher, with filtering set to 3 kHz (–3 dB) or higher, as appropriate for sampling rate. For measurements of GPCR activation, whole-cell currents were recorded for THIK-1 in transiently transfected HEK-293 cells. Cells were stimulated by a ramp protocol between −100 and +60 mV (holding potential, −80 mV). The pipette solution was composed of (in mM): 140 KCl, 2 MgCl2, 1 CaCl2, 2.5 EGTA and 10 HEPES (pH 7.3 adjusted with KOH and HCl). The extracellular bath solution had the following composition (in mM): 135 NaCl, 5 KCl, 2 MgCl2, 2 CaCl2, 10 glucose and 10 HEPES pH (pH 7.3 adjusted with NaOH and HCl). Oxotremorine M (Oxo-M) was added to extracellular bath solution to obtain the final concentration. Single-channel currents were recorded with an Axopatch 200B amplifier through a Digidata 1440A digitizer (Molecular Devices). Data were filtered at 2 kHz and recorded at a 200-kHz sampling rate with the program Clampex (Molecular Devices). Pipette solution and bath solution for cell-attached recordings contained (in mM): 140 KCl, 2 MgCl2, 1 CaCl2 and 10 HEPES (pH 7.4 adjusted with KOH and HCl). For inside-out recordings, the bath solution contained (in mM): 140 KCl, 2 MgCl2, 1 CaCl2 and 10 HEPES (pH 7.2 adjusted with KOH and HCl). All experiments were conducted at room temperature. […]

Setting [1] is: THIK-1 WT (TPenA), presence of 0.5 mM TPenA.
The mark [2] stands for this setting: THIK-1 WT (oleoyl-CoA), 5.0 µM oleoyl-CoA.

As to `CCCCC/C=C\C/C=C\CCCCCCCC(=O)O` [linoleic acid], the Fold activation runs as follows: (1 µM linoleic acid) 0.98; (10 µM linoleic acid) 1.75; (30 µM linoleic acid) 2.77; (50 µM linoleic acid) 3.38; (100 µM linoleic acid) 3.62; (150 µM linoleic acid) 4.27. Under “200 µM linoleic acid”, this molecule gave a Fold activation of 4.21. Besides, the “Fold activation with 30.0 µM linoleic acid” value by setting is: (THIK-1 WT, individual recordings) 3.150 and 3.640 and 4.490 and 2.650 and 2.000 and 1.880 and 1.350 and 1.220 and 3.650 and 3.260 and 3.220; (THIK-1 WT, mean) 2.77. For the same molecule, the EC50 is, setting by setting: (THIK-1 WT, mean, read-out: Linoleic acid EC50) 28.5 µM; (applied intracellularly to excised patches, WT, read-out: half-maximal effective concentration (activation)) 29 ± 5 µM.

For `FCOC(C(F)(F)F)C(F)(F)F` [Sevoflurane, sevoflurane], for the setting “0.24 mM Sevoflurane, WT, individual recordings”, the “Inhibition (%)” value was 52.54% and 40.05% and 49.45% and 28.56% and 58.12% and 60.68% and 50.30%. The inhibition at 240 µM (0.24 mM Sevoflurane, WT, mean) was 48.5%. Besides, testing at 23 µM (THIK-1 WT, 0.023 mM sevoflurane) gave an inhibition of 14.1%. This molecule yielded an inhibition at 47 µM (THIK-1 WT, 0.047 mM sevoflurane) of 21.7%. Further, at 468 µM the inhibition (THIK-1 WT, 0.468 mM sevoflurane) was 57.5%. Further, the inhibition at 2340 µM (THIK-1 WT, 2.34 mM sevoflurane) was found to be 79.5%.

As to `FC(F)(F)C(Cl)Br` (centres unmarked) [halothane], for the setting “THIK-1 WT”, the inhibition at 152 µM worked out at 11%, the inhibition at 304 µM was found to be 18.8%, the inhibition at 1520 µM was 41.4% and the inhibition at 3040 µM was determined as 57.6%. Further, for the setting “THIK-1 WT”, the inhibition at 15200 µM was found to be 83.9%. Besides, under setting [1], the inhibition at 152 µM came to 6.45%, the inhibition at 304 µM stood at 13%, the inhibition at 1520 µM was determined as 23.2% and the inhibition at 3040 µM is 30%. Further, the inhibition at 15200 µM under setting [1] was 57.9%. Under setting [2], this molecule yielded an inhibition at 304 µM of 4.78%, an inhibition at 1520 µM of 19.9%, an inhibition at 3040 µM of 38.9% and an inhibition at 15200 µM of 69.3%.

On to `FC(F)OC(Cl)C(F)(F)F` (centres unmarked) [Isoflurane, isoflurane], for which the “Inhibition (%)” value (4.9 mM Isoflurane, WT, individual recordings) is 88.353% and 81.703% and 79.557% and 81.992% and 78.205% and 79.070% and 68.116% and 80.054% and 86.809% and 87.556%. Moreover, the inhibition at 242 µM by setting is: (THIK-1 WT (oleoyl-CoA), 0.242 mM isoflurane) 10.6%; (isoflurane 0.242 mM, THIK-1 WT) 33.6%. Besides, the inhibition at 485 µM runs as follows: (THIK-1 WT (oleoyl-CoA), 0.485 mM isoflurane) 21%; (isoflurane 0.485 mM, THIK-1 WT) 50.2%. The inhibition at 2420 µM by setting is: (THIK-1 WT (oleoyl-CoA), 2.42 mM isoflurane) 33.6%; (isoflurane 2.42 mM, THIK-1 WT) 65.3%. Moreover, the inhibition at 4850 µM is 60.9% (THIK-1 WT (oleoyl-CoA), 4.85 mM isoflurane) and 81.1% (isoflurane 4.85 mM, THIK-1 WT). Moreover, the inhibition at 24200 µM is, setting by setting: (THIK-1 WT (oleoyl-CoA), 24.2 mM isoflurane) 79.7%; (isoflurane 24.2 mM, THIK-1 WT) 89.5%. In addition, the Inhibition (THIK-1 WT (oleoyl-CoA), isoflurane concentration printed as "v" (mM)) was found to be 4.36%. Also, the inhibition at 48 µM (isoflurane 0.048 mM, THIK-1 WT) was determined as 20.4%.
